This note sets out measurements from ChEMBL document CHEMBL5523769, “Discovery of Novel Nonpeptidic and Noncovalent Small Molecule 3CLpro Inhibitors as anti-SARS-CoV-2 Drug Candidate” (J Med Chem, 2024).

Active and inactive are the calls of the source. No cut-off for these calls is given here.

In assay [1] the test system is SARS-CoV-2. Put plainly: microbe, parasite or virus in culture. The conditions noted are these: Severe acute respiratory syndrome coronavirus 2, Delta, Vero C1008.
Assay [2] deals with SARS-CoV-2. The experiment in a line: microbe, parasite or virus in culture. The conditions noted are these: Severe acute respiratory syndrome coronavirus 2, Delta, Vero C1008. This is another data set of the same source.
Assay [3] has as its system SARS-CoV-2. Put plainly: Antiviral activity against SARS-CoV-2 omicron BA.5 variant infected in K18-hACE2 transgenic mouse model assessed as increase in body weight at 50 mg/kg, po pre-infected with virus for 2 hrs followed by twice daily compound administration and measured on day 4 in presence of nirmatrelvir. Type of assay: functional, organism-based. Particulars: Severe acute respiratory syndrome coronavirus 2, time 4.0 day.

Assay [4] deals with SARS-CoV-2. Put plainly: Antiviral activity against SARS-CoV-2 omicron BA.5 variant infected in K18-hACE2 transgenic mouse model assessed as log reduction in viral copies in lungs at 200 mg/kg, po pre-infected with virus for 2 hrs followed by twice daily compound administration and measured on day 4. The conditions noted are these: time 4 day. Type of assay: functional, Severe acute respiratory syndrome coronavirus 2.

The test system of assay [5] is SARS-CoV-2. The experiment in a line: Antiviral activity against SARS-CoV-2 omicron BA.5 variant infected in K18-hACE2 transgenic mouse model assessed as increase in body weight at 100 to 200 mg/kg, po pre-infected with virus for 2 hrs followed by twice daily compound administration and measured on day 4. Type of assay: functional, organism-based. Particulars: Severe acute respiratory syndrome coronavirus 2, dose 100-200 mg/kg, time 4.0 day.

For assay [6], the system named is SARS-CoV-2. The experiment in a line: Antiviral activity against SARS-CoV-2 omicron BA.5 variant infected in K18-hACE2 transgenic mouse model assessed as inhibition of viral replication at 100 mg/kg, po pre-infected with virus for 2 hrs followed by twice daily compound administration and measured on day 2 to 4. Format: functional, organism-based. Particulars: Severe acute respiratory syndrome coronavirus 2, time 2-4 day.

Assay [7] deals with SARS-CoV-2. Put plainly: Antiviral activity against SARS-CoV-2 omicron BA.5 variant infected in K18-hACE2 transgenic mouse model assessed as log reduction in viral copies in lungs at 200 mg/kg, po pre-infected with virus for 2 hrs followed by twice daily compound administration and measured on day 2. Format: functional, Severe acute respiratory syndrome coronavirus 2. Particulars: time 2 day.

In assay [8] the test system is SARS-CoV-2. Put plainly: Antiviral activity against SARS-CoV-2 omicron BA.5 variant infected in K18-hACE2 transgenic mouse model assessed as increase in body weight at 200 mg/kg, po pre-infected with virus for 2 hrs followed by twice daily compound administration and measured on day 4 in presence of ritonavir. Format: functional, organism-based. The conditions noted are these: Severe acute respiratory syndrome coronavirus 2, time 4.0 day.

In general, EC50 refers to the midpoint of the concentration-response curve. Low readings indicate higher potency in that assay, high ones lower potency in that assay. The compound `O=C(NCCCC(F)(F)F)C1CN(c2ccc(Cl)c(Cl)c2)CCN1C(=O)c1cc(=O)[nH]c2ccccc12` (centres undefined) had an EC50 in the assay on SARS-CoV-2 [1] of 3.95 µM.
Same read-out and setting: for `CNC(=O)c1cc(C2CC2)cc([N+](=O)[O-])c1N[C@@H]1CCCC[C@@H]1NC(=O)c1cc(=O)[nH]c2ccccc12` the value was 2.69 µM.
For `O=C(c1cc(=O)[nH]c2ccccc12)N1CCN(c2ccc(Cl)c(Cl)c2)CC1CN1CCOCC1` (centres undefined), the EC50 in the assay with SARS-CoV-2 [2] and in the assay on SARS-CoV-2 [1] was 7.24 µM throughout.
`O=C(N[C@H]1CCCC[C@H]1Nc1c(C(=O)N2CCOCC2)cc(Br)cc1[N+](=O)[O-])c1cc(=O)[nH]c2ccccc12` returned an EC50 in the assay with SARS-CoV-2 [1] of 3.36 µM.
For `CC(C)c1nc(CN(C)C(=O)N[C@H](C(=O)N[C@@H](Cc2ccccc2)C[C@H](O)[C@H](Cc2ccccc2)NC(=O)OCc2cncs2)C(C)C)cs1`, the outcome with SARS-CoV-2 [3] was Active.
`CNC(=O)c1cc(Br)cc([N+](=O)[O-])c1N[C@@H]1CCCC[C@@H]1NC(=O)c1cc(=O)[nH]c2ccccc12` showed an EC50 with SARS-CoV-2 [1] of 0.849 µM.
Still for that read-out and setting: for `O=C(N[C@H]1CCCC[C@H]1Nc1c(C(=O)N2CCOCC2)cc(C2CC2)cc1[N+](=O)[O-])c1cc(=O)[nH]c2ccccc12` the value was 4.46 µM; for `CNC(=O)c1cc(Br)cc([N+](=O)[O-])c1N[C@@H]1CCCC[C@@H]1NC(=O)c1cc(=O)[nH]c2c(F)cccc12`, 0.346 µM.
Same read-out and setting: for `CNC(=O)c1cc(Br)cc([N+](=O)[O-])c1N[C@@H]1CCCC[C@@H]1NC(=O)c1cc(=O)[nH]c2ccc(F)cc12` the value was 2.44 µM.
Regarding `CN1CCN(C(=O)c2cc(Br)cc([N+](=O)[O-])c2N[C@@H]2CCCC[C@@H]2NC(=O)c2cc(=O)[nH]c3c(F)cccc23)CC1`, the figures for the “log(activity)” value with SARS-CoV-2 [4] and with SARS-CoV-2 [7] were 1 and 1.5, respectively. For the same compound, the outcome with SARS-CoV-2 [5] and in the assay on SARS-CoV-2 [6] was Active. Moreover, in the assay on SARS-CoV-2 [1], it took 0.272 µM to reach a half-maximal effect (EC50).
For `CC(C)(C)[C@H](NC(=O)C(F)(F)F)C(=O)N1C[C@H]2[C@@H]([C@H]1C(=O)N[C@H](C#N)C[C@@H]1CCNC1=O)C2(C)C`, the result with SARS-CoV-2 [8] was Active.
For `O=C(N[C@H]1CCCC[C@H]1Nc1c(C(=O)N2CCOCC2)cc(Br)cc1[N+](=O)[O-])c1cc(=O)[nH]c2c(F)cccc12`, the half-maximal effective concentration (EC50) in the assay on SARS-CoV-2 [1] worked out at 0.367 µM.
On the same count and under the same terms, for `COc1ccc2[nH]c(=O)cc(C(=O)N[C@H]3CCCC[C@H]3Nc3c(C(=O)N4CCOCC4)cc(C4CC4)cc3[N+](=O)[O-])c2c1` the value was 7.81 µM; for `O=C(NCCC(F)(F)F)C1CN(c2ccc(Cl)c(Cl)c2)CCN1C(=O)c1cc(=O)[nH]c2ccccc12` (centres undefined), 17.7 µM.
